In patent publication US5817776A, “Amino acid analogs for tumor imaging” (priority 1996, dated 1998):

Assays:
in vivo = conditions: rat, in vivo, iv, Mean % Injected Dose/Gram
Description: (§1) In vivo distribution of a compound of the invention, [^18 F]-1-amino-3-fluoro-cyclobutane-1-carboxylic acid (FACBC) was measured in rats having an implanted gliosarcoma. Accumulation in various tissue was measured at 5 min and 60 min post-administration.
(§2) Distribution of Radioactivity in Tissues of Unfasted Male
(§3) Fisher Rats following Intravenous Administration of [^18 F]FACBC

implanted gliosarcoma = assay: in vivo; conditions: for Bone, Mean % Injected Dose/Gram: unfasted male fisher rats, average of 4 rats
Description: as §1, §2, §3

[1] = system: human astrocyte tumor cells; assay: Binding to human astrocyte tumor cells in a human patient; format: in vivo
normal tissue = conditions: in vivo; cited from earlier work
[2] = system: metastatic lesions in the brain; conditions: cited from earlier work
several tumor types = conditions: labeled with carbon-14 or carbon-11, animals, Washburn et al. 1979; cited from earlier work
[3] = system: N-methyl-D-aspartic acid (NMDA) receptor, strychnine-insensitive glycine recognition site; conditions: cited from earlier work
[4] = 60 min, intravenous, male fisher rats with implanted gliosarcoma

`NC1(C(=O)O)CC([18F])C1` (stereo not shown) [[^18 F]FACBC, [^18 F]-1-amino-3-fluorocyclobutane-1-carboxylic acid] gave a tissue uptake at 5 min (in vivo; Blood, 5 min, unfasted male fisher rats, average of 4 rats) of 0.58 %ID/g, a tissue uptake at 1 h (in vivo; Blood, 60 min, unfasted male fisher rats, average of 4 rats) of 0.32 %ID/g and a tissue uptake at 5 min (in vivo; Bone, 5 min, unfasted male fisher rats, average of 4 rats) of 0.52 %ID/g. The tissue uptake at 1 h (in vivo; Bone, 60 min, unfasted male fisher rats, average of 4 rats) was 0.38 %ID/g, the tissue uptake at 5 min (in vivo; Brain (B)) was 0.11 %ID/g and the tissue uptake at 1 h (in vivo; Brain (B)) was 0.26 %ID/g. The tissue uptake at 5 min (in vivo; Heart) was 0.7 %ID/g, the tissue uptake at 1 h (in vivo; Heart) was 0.56 %ID/g and the tissue uptake at 5 min (in vivo; Kidney) was 1.08 %ID/g. It also gave a tissue uptake at 1 h (in vivo; Kidney) of 0.6 %ID/g, a tissue uptake at 5 min (in vivo; Liver) of 1.1 %ID/g and a tissue uptake at 1 h (in vivo; Liver) of 1.7 %ID/g. It also gave a tissue uptake at 5 min (in vivo; Lung) of 1.13 %ID/g, a tissue uptake at 1 h (in vivo; Lung) of 0.64 %ID/g and a tissue uptake at 5 min (in vivo; Muscle) of 0.27 %ID/g. For the same molecule, the tissue uptake at 1 h (in vivo; Muscle) was 0.41 %ID/g, the tissue uptake at 5 min (in vivo; Spleen) was 1.55 %ID/g and the tissue uptake at 1 h (in vivo; Spleen) was 0.68 %ID/g. It also gave a tissue uptake at 5 min (in vivo; Testis) of 0.25 %ID/g, a tissue uptake at 1 h (in vivo; Testis) of 0.28 %ID/g and a tissue uptake at 5 min (in vivo; Tumor (T), 5 min, male fisher rats with implanted gliosarcoma) of 0.61 %ID/g. The tissue uptake at 1 h (in vivo; Tumor (T), 60 min, male fisher rats with implanted gliosarcoma) was 1.72 %ID/g, the “T/B (tumor to brain ratio)” value (implanted gliosarcoma; 5 min, intravenous, male fisher rats with implanted gliosarcoma) was 5.58 and the “Bone, Mean % Injected Dose/Gram” value (implanted gliosarcoma; 5 min, intravenous) was 0.52 % Injected Dose/Gram. The “T/B (tumor to brain ratio)” value (implanted gliosarcoma; [4]) was 6.6, the “Tumor (T), Mean % Injected Dose/Gram” value (implanted gliosarcoma; [4]) was 1.72 % Injected Dose/Gram and the “Bone, Mean % Injected Dose/Gram” value (implanted gliosarcoma; 60 min, intravenous) was 0.38 % Injected Dose/Gram. The “T/B (tumor to brain ratio)” value (implanted gliosarcoma; rat, in vivo, iv) was 6.61, the “stability to in vivo defluorination (bone uptake)” value (implanted gliosarcoma; rat, in vivo, iv) was “Uptake by bone was essentially constant over the 60 minutes of exposure, indicating stability of the 2-cyclobutyl group to significant in vivo defluorination” and the “tumor uptake / tumor to brain discrimination (in words)” value (implanted gliosarcoma; rat, in vivo, iv) was “preferentially associated with tumor tissue as early as 5 minutes post administration”. For the same molecule, the “Brain (B), Mean % Injected Dose/Gram” value (implanted gliosarcoma; rat, in vivo, iv, 5 min) was 0.11 % Injected Dose/Gram, the “Brain (B), Mean % Injected Dose/Gram” value (implanted gliosarcoma; rat, in vivo, iv, 1 h) was 0.26 % Injected Dose/Gram and the “binding to human astrocyte tumor cells (in words)” value [1] was “highly specific binding to human astrocyte tumor cells”.

In the case of `CSCC[C@H](N)C(=O)O` [[^11 C] methionine, methionine], the “uptake in normal tissue (in words)” value (normal tissue) is given as “relatively high uptake in normal tissue”.

In the case of `NC1(C(=O)O)CCC1` [ACBC, 1-aminocyclobutanecarboxylic acid], the “substrate for protein synthesis in metastatic lesions; normal brain uptake (in words)” value [2] is given as “selective substrate for protein synthesis in metastatic lesions in the brain with little observable uptake in normal brain tissue”, the “incorporation by tumors (in words)” value (several tumor types) is given as “incorporated preferentially by several tumor types in animals” and the “NMDA receptor ligand and antagonist activity (in words)” value [3] is given as “selective and potent ligand and antagonist”.
